Assays:
MCAO rats = experiment: Area and swelling degree of cerebral infarction in rat MCAO models; type: in vivo, Sprague-Dawley (SD) rat; settings: n=8, glibenclamide 10 μg/kg ip at ischemia 4 h + 200 ng/h sc for 44 hours, after ischemia for 48 hours
Experimental: 7.2 Experiment Animals: Male Sprague-Dawley (SD) rat, clean grade, weighing at 200˜230 g. The temperature of animal feeding room was maintained at 20˜24° C., the humidity was maintained at 30˜70%; a cycle of lighting on 12 hours/lighting off 12 hours (06:00 AM on, 18:00 PM off) every day was employed. During the experiment, the animals were feed separately, and had free access to water and food.
The test drugs in group GB was formulated as follows: glibenclamide was dissolved in a little DMSO (dimethyl sulfoxide), the resulting solution was diluted to a DMSO concentration of 5 vol % with physiological saline, and the pH of the solution was adjusted to 8˜8.5 with NaOH. […]
Rats were rested for about 1 week before the experiment started. […] The blood flow in the brain was monitored with a laser Doppler (Model moorVMS-LDF2, Manufacturer moor) respectively pre-operation, post-operation and immediately after reperfusion, and the molding in which the ratio of the postoperative blood flow to the preoperative blood flow was less than 30% was regarded as a qualified molding. […]
After ischemia for 48 hours, the brain was taken and put into a brain slicer to slice coronal sections through the brain (2 mm each piece), stained at dark with 1% TTC for 15 min at 37° C., and analyzed for the area of infarction after taking a photograph. […]

[1] = background statement; cited from earlier work

## COc1ccc(Cl)cc1C(=O)NCCc1ccc(S(=O)(=O)NC(=O)NC2CCCCC2)cc1 [glibenclamide, 5-chloro-N-(4-[N-(cyclohexylcarbamoyl)aminosulfonyl]phenethyl)-2-methoxybenzamide]
MCAO rats
  Swelling degree (area of infarction side hemisphere / non-infarction side hemisphere): 1.31 ± 0.04
[1]
  water solubility: less than 5 μg/ml
